We go through 14 compounds from patent US20260242398A1, “BENZOPYRIMIDIN-4(3H)-ONES AS PI3K INHIBITORS” (OnKure, Inc., priority 2022, published 2026).

Type in all cases: cell-based
The subject of assay [1] is T47D cells expressing mutant PI3Ka (H1047R). As to the kind of experiment: In vitro cell proliferation (CellTiter-Glo, 72 hours), T47D cells. As to conditions: inhibition of proliferation, read-out: Avg T-47D EC50. Here is the method:
(§1) In Vitro Cell Proliferation: Determination of EC50 Values for Inhibition of Proliferation in T47D Cells Expressing Mutant PI3Ka (H1047R) Mutation and SKBR3 Cells Express WT PI3Ka.
(§2) T47D or SKBR3 cells were trypsinized, resuspended in culture media and seeded onto assay ready plates. T47D culture media consisted of RPMI, 10% FBS and Insulin (0.2 units/mL). SKBR3 culture media consisted of McCoys 5a and 10% FBS. Cells were seeded at a density of 1,500 cells/well and dispensed in 50 uL onto 384 well assay ready plates (Corning, 89089-790). Assay ready plates had previously been stamped with 10-point dilutions of compounds of interest, as well as controls. The Echo655 is used to stamp plates at 40 nL of compound or DMSO. Cells were grown for 72 hours at 37° Celsius and 5% CO2. After 72 hours, cells were equilibrated at room temperature for 15 minutes. 30 uL of CellTiter-Glo reagent is added to the plate, which is then shaken for 30 minutes at temperature at 300-500 rpm. Cells are then read on an Envision plate reader. The percentage of inhibition of proliferation was calculated using the following formula: % Inhibition=100×(LumD−LumSample)/(LumD−LumInh), where D is obtained from cells treated with 0.1% DMSO only; Inh is obtained from cells treated with 10 uM Alpelisib. The effective concentration achieving 50% inhibition of proliferation (EC50) is calculated by fitting the Curve using XWfit (v5.3.1.3), equation 201: Y=Bottom+(Top−Bottom)/(1+10^((Log EC50−X)*HillSlope)).
For orientation: ATP-based viability assays read luminescence as a measure of living cells.

For assay [2], the system named is SKBR3 cells express WT PI3Ka. As to the kind of experiment: In vitro cell proliferation (CellTiter-Glo, 72 hours), SKBR3 cells. As to conditions: inhibition of proliferation. The protocol:
as §1, §2

In assay [3] the test system is phosphorylation of AKT (pAKT) in T47D cells expressing mutant PI3Ka (H1047R). In words: In vitro cell pAKT (Ser473) HTRF, T47D cells. Particulars: inhibition of pAKT, read-out: Avg T-47D IC50. The protocol:
(§3) In Vitro Cell pAKT: Determination of IC50 Values for Inhibition of Phosphorylation of AKT (pAKT) in T47D Cells Expressing Mutant PI3Ka (H1047R) Mutation and SKBR3 Cells Express WT PI3Ka.
(§4) T47D or SKBR3 cells were trypsinized, resuspended in culture media and seeded onto assay ready plates. T47D culture media consisted of RPMI, 10% FBS and Insulin (0.2 units/mL). SKBR3 culture media consisted of McCoy's 5a and 10% FBS. Cells were seeded at a density of 5000 cells/well and dispensed in 12.5 uL onto 384 well assay ready plates (Perkin Elmer, 6008238)). Assay ready plates had previously been stamped with 10-point dilutions of compounds of interest, as well as controls. The Echo655 is used to stamp plates at 12.5 nL of compound or DMSO. Cells were grown for 6 hour at 37° Celsius and 5% CO2. After 6 hour, 4 uL of Lysis buffer reagent was added to the plate, which was then centrifuged for 1 minute at 1000 rpm. Then the plate was incubated at room temperature for 30 minutes. After 30 minutes, 4 uL of antibody mix containing Eu Cryptate, d2 Cryptate, and detection buffer, was added to the plate. The plate was centrifuged for 1 minute at 1000 rpm and then incubated overnight at room temperature. The plate was read on an Envision plate reader using the HTRF protocol. The percentage of inhibition of AKT phosphorylation was calculated using the following formula: % Inhibition=100×(pAKTHC−pAKTSample)/(pAKTHC−pAKTLC)), where pAKTHC is obtained from cells treated with 0.1% DMSO only; pAKTLC is obtained from cells treated with 10 uM Alpelisib. The IC50 (concentration achieving 50% inhibition of pAKT) is calculated by fitting the Curve using XWfit (v5.3.1.3), equation 201: Y=Bottom+(Top−Bottom)/(1+10^((Log IC50−X)*HillSlope)).
Background: Time-resolved FRET reads energy transfer from a long-lived donor to a nearby acceptor.

Assay [4] relates to phosphorylation of AKT (pAKT) in SKBR3 cells express WT PI3Ka. In words: In vitro cell pAKT (Ser473) HTRF, SKBR3 cells. Particulars: inhibition of pAKT. The protocol:
as §3, §4

Read-outs that look alike come from different tables or passages of the source. Bounds are passed on as bounds.

The EC50 is the concentration at which the effect is half-maximal. As a reminder, the IC50 is the concentration at which inhibition is half-maximal. In the case of `Cc1cc(C(C)Nc2ccc(Cl)cc2C(=O)O)c2nc(N3Cc4ccc(F)cc4C3)n(C)c(=O)c2c1` (single isomer, unassigned) [Example 13, 5-chloro-2-((1-(2-(5-fluoroisoindolin-2-yl)-3,6-dimethyl-4-oxo-3,4-dihydroquinazolin-8-yl)ethyl)amino)benzoic acid], the EC50 in assay [1] was 2000 to 15000 nM; in assay [2], more than 15 µM. For the same compound, the IC50 in assay [3] (6 hour) is more than 15000 nM; in assay [4] (Homo sapiens, SK-BR-3, 6 h) it was more than 15 µM.
As for `Cc1cc(C(C)Nc2ccc(Cl)cc2C(=O)O)c2nc(N3Cc4ccc(F)cc4C3)n(C)c(=O)c2c1` (single isomer, unassigned) [Example 14, 5-chloro-2-((1-(2-(5-fluoroisoindolin-2-yl)-3,6-dimethyl-4-oxo-3,4-dihydroquinazolin-8-yl)ethyl)amino)benzoic acid], the EC50 in assay [1] fell in the range of 1 to 500 nM; in assay [2] it was 2 to 15 µM. Also, the IC50 in assay [3] (6 hour) is 1000 to 5000 nM; in assay [4] (6 hour) it was more than 15 µM.
As to `Cc1cc(C(C)Nc2ccccc2C(=O)O)c2nc(N3Cc4ccc(C#N)cc4C3)n(C)c(=O)c2c1` (single isomer, unassigned) [Example 17, 2-((1-(2-(5-cyanoisoindolin-2-yl)-3,6-dimethyl-4-oxo-3,4-dihydroquinazolin-8-yl)ethyl)amino)benzoic acid], the EC50 in assay [1] is 1 to 500 nM; in assay [2] (Homo sapiens, SK-BR-3, 72 h), more than 15 µM. In addition, the IC50 is 1 to 1000 nM in assay [3] (6 hour) and more than 15 µM in assay [4] (Homo sapiens, SK-BR-3, 6 h).
Consider `Cc1cc(C(C)Nc2ccccc2C(=O)O)c2nc(N3Cc4ccc(C#N)cc4C3)n(C)c(=O)c2c1` (single isomer, unassigned) [Example 18, 2-((1-(2-(5-cyanoisoindolin-2-yl)-3,6-dimethyl-4-oxo-3,4-dihydroquinazolin-8-yl)ethyl)amino)benzoic acid], for which the EC50 was more than 15000 nM in assay [1] and more than 15 µM in assay [2]. Moreover, the IC50 was more than 15000 nM in assay [3] (6 hour) and more than 15 µM in assay [4] (6 hour).
For the compound `Cc1cc2c(=O)n(C)c(N3CCN(CC(F)(F)F)CC3)nc2c(C(C)Nc2ccccc2C(=O)O)c1F` (single isomer, unassigned) [Example 20, 2-((1-(7-fluoro-3,6-dimethyl-4-oxo-2-(4-(2,2,2-trifluoroethyl)piperazin-1-yl)-3,4-dihydroquinazolin-8-yl)ethyl)amino)benzoic acid], the EC50 in assay [1] is 500 to 2000 nM; in assay [2] (Homo sapiens, SK-BR-3, 72 h) it was more than 15 µM. In addition, the IC50 was 1 to 1000 nM in assay [3] (6 hour) and more than 15 µM in assay [4] (Homo sapiens, SK-BR-3, 6 h).
Turning to `Cc1cc2c(=O)n(C)c(N3CCN(CC(F)(F)F)CC3)nc2c(C(C)Nc2ccccc2C(=O)O)c1F` (single isomer, unassigned) [Example 21, 2-((1-(7-fluoro-3,6-dimethyl-4-oxo-2-(4-(2,2,2-trifluoroethyl)piperazin-1-yl)-3,4-dihydroquinazolin-8-yl)ethyl)amino)benzoic acid], the EC50 in assay [1] was more than 15000 nM; in assay [2], more than 15 µM. For the same compound, the IC50 is more than 15000 nM in assay [3] (6 hour) and more than 15 µM in assay [4] (6 hour).
Take `CC(Nc1ccccc1C(=O)O)c1cc(Cl)cc2c(=O)n(C)c(N3CCC(C)(C)CC3)nc12` (single isomer, unassigned) [Example 22, 2-((1-(6-chloro-2-(4,4-dimethylpiperidin-1-yl)-3-methyl-4-oxo-3,4-dihydroquinazolin-8-yl)ethyl)amino)benzoic acid]: the results for the EC50 in assay [1] and in assay [2] were 500 to 2000 nM and more than 15 µM, respectively. Moreover, the IC50 in assay [3] (6 hour) was 1 to 1000 nM; in assay [4] (Homo sapiens, SK-BR-3, 6 h) it was more than 15 µM.
In the case of `CC(Nc1ccccc1C(=O)O)c1cc(Cl)cc2c(=O)n(C)c(N3CCC(C)(C)CC3)nc12` (single isomer, unassigned) [Example 23, 2-((1-(6-chloro-2-(4,4-dimethylpiperidin-1-yl)-3-methyl-4-oxo-3,4-dihydroquinazolin-8-yl)ethyl)amino)benzoic acid], the EC50 fell in the range of 2000 to 15000 nM in assay [1] and 2 to 15 µM in assay [2]. For the same compound, the IC50 is more than 15000 nM in assay [3] (6 hour) and more than 15 µM in assay [4] (6 hour).
Take `CC(Nc1ccc(F)cc1C(=O)O)c1cc(Cl)cc2c(=O)n(C)c(N3CCN(CC(F)(F)F)CC3)nc12` (single isomer, unassigned) [Example 24, 2-((1-(6-chloro-3-methyl-4-oxo-2-(4-(2,2,2-trifluoroethyl)piperazin-1-yl)-3,4-dihydroquinazolin-8-yl)ethyl)amino)-5-fluorobenzoic acid]: the EC50 is 1 to 500 nM in assay [1] and 2 to 15 µM in assay [2] (Homo sapiens, SK-BR-3, 72 h). For the same compound, the IC50 is 1 to 1000 nM in assay [3] (6 hour) and more than 15 µM in assay [4] (Homo sapiens, SK-BR-3, 6 h).
With `CC(Nc1ccc(F)cc1C(=O)O)c1cc(Cl)cc2c(=O)n(C)c(N3CCN(CC(F)(F)F)CC3)nc12` (single isomer, unassigned) [Example 25, 2-((1-(6-chloro-3-methyl-4-oxo-2-(4-(2,2,2-trifluoroethyl)piperazin-1-yl)-3,4-dihydroquinazolin-8-yl)ethyl)amino)-5-fluorobenzoic acid], the EC50 lay in the range of 2000 to 15000 nM in assay [1] and 2 to 15 µM in assay [2]. Also, the figures for the IC50 in assay [3] (6 hour) and in assay [4] (6 hour) were more than 15000 nM and more than 15 µM, respectively.
Turning to `CC(Nc1ccccc1C(=O)O)c1cc(Cl)cc2c(=O)n(C)c(N3CCN(CC(F)(F)F)CC3)nc12` (single isomer, unassigned) [Example 26, 2-((1-(6-chloro-3-methyl-4-oxo-2-(4-(2,2,2-trifluoroethyl)piperazin-1-yl)-3,4-dihydroquinazolin-8-yl)ethyl)amino)benzoic acid], the EC50 in assay [1] is 500 to 2000 nM; in assay [2] (Homo sapiens, SK-BR-3, 72 h), more than 15 µM. Besides, the IC50 in assay [3] (6 hour) is 1 to 1000 nM; in assay [4] (Homo sapiens, SK-BR-3, 6 h) it was more than 15 µM.
Turning to `CC(Nc1ccccc1C(=O)O)c1cc(Cl)cc2c(=O)n(C)c(N3CCN(CC(F)(F)F)CC3)nc12` (single isomer, unassigned) [Example 27, 2-((1-(6-chloro-3-methyl-4-oxo-2-(4-(2,2,2-trifluoroethyl)piperazin-1-yl)-3,4-dihydroquinazolin-8-yl)ethyl)amino)benzoic acid], the EC50 was more than 15000 nM in assay [1] and more than 15 µM in assay [2]. In addition, the IC50 in assay [3] (6 hour) is more than 15000 nM; in assay [4] (6 hour) it was more than 15 µM.
Regarding `Cc1cc(C(C)Nc2ccc(F)cc2C(=O)O)c2nc(N3CCC(C)(C)CC3)n(C)c(=O)c2c1` (single isomer, unassigned) [Example 30, 2-((1-(2-(4,4-dimethylpiperidin-1-yl)-3,6-dimethyl-4-oxo-3,4-dihydroquinazolin-8-yl)ethyl)amino)-5-fluorobenzoic acid], the results for the EC50 in assay [1] and in assay [2] were 2000 to 15000 nM and 2 to 15 µM, respectively. The IC50 in assay [3] (6 hour) is more than 15000 nM; in assay [4] (6 hour), more than 15 µM.
As for `Cc1cc(C(C)Nc2ccccc2C(=O)O)c2nc(SCc3ccc(Cl)c(OC(F)(F)F)c3)n(C)c(=O)c2c1` (single isomer, unassigned) [Example 31, 2-((1-(2-((4-chloro-3-(trifluoromethoxy)benzyl)thio)-3,6-dimethyl-4-oxo-3,4-dihydroquinazolin-8-yl)ethyl)amino)benzoic acid], the EC50 is 2000 to 15000 nM in assay [1] (Homo sapiens, T47D, 72 h) and 2 to 15 µM in assay [2] (Homo sapiens, SK-BR-3, 72 h). The IC50 is more than 15000 nM in assay [3] (Homo sapiens, T47D, 6 h) and more than 15 µM in assay [4] (Homo sapiens, SK-BR-3, 6 h).
